# Patent US4593097A, “Phenazine carboxylic acid derivatives and a process for production thereof” (Kyowa Hakko Kogyo Co., Ltd., priority 1983, dated 1986)
# Assays:
# [1] = system: Salmonella typhosa ATCC 9992; assay: Antibacterial activity by agar dilution method (pH 7.0), Salmonella typhosa ATCC 9992; type: cell-based; conditions: Salmonella enterica, pH 7, read-out: Minimum Inhibitory Concentration
# From the text: (§1) Antibacterial activities of DC-86-Y, -M, -R and -C against various bacteria determined by agar dilution method (pH 7.0) are shown in Table 2.
# [2] = system: Sarcoma 180 ascites tumor cells; assay: Anti-tumor activity against Sarcoma 180 in mice; type: in vivo, ddy male mice; conditions: 24 h after transplantation, measured 7 days after transplantation
# Method: 5×10^6 Sarcoma 180 ascites tumor cells were transplanted to the hypoderm of the armpit cavity of ddy male mice weighing about 20 g, one group being 6 mice. 24 hours after the transplantation, 0.2 ml of a phosphate buffer saline (PBS) solution of a test compound having various concentrations was intraperitoneally administered once. The composition of PBS is 0.8 g/dl NaCl, 0.02 g/dl KCl, […] Na2 HPO4 and 0.02 g/dl KH2 PO4 (pH 7.2). For comparison, 0.2 ml of PBS containing mitomycin C was intraperitoneally administered 24 hours after the transplantation of the tumor cells. Average tumor volume (mm^3) and T/C (T: average tumor volume of mice treated with the test compound, C: average tumor volume of mice treated with 0.2 ml of PBS intraperitoneally)were measured 7 days after the transplantation and the results shown in Table 3 were obtained.
# [3] = system: Klebsiella pneumoniae ATCC 10031; assay: Antibacterial activity by agar dilution method (pH 7.0), Klebsiella pneumoniae ATCC 10031; type: cell-based; conditions: ATCC10031, read-out: Minimum Inhibitory Concentration
# From the text: as §1
# [4] = system: Staphylococcus aureus ATCC 6538P; assay: Antibacterial activity by agar dilution method (pH 7.0), Staphylococcus aureus ATCC 6538P; type: cell-based; conditions: ATCC6538P, read-out: Minimum Inhibitory Concentration
# From the text: as §1
# in vivo = conditions: mouse, ip
# [5] = system: Bacillus subtilis No. 10707; assay: Antibacterial activity by agar dilution method (pH 7.0), Bacillus subtilis No. 10707; type: cell-based; conditions: read-out: Minimum Inhibitory Concentration
# From the text: as §1
# [6] = system: Shigella sonnei ATCC 9290; assay: Antibacterial activity by agar dilution method (pH 7.0), Shigella sonnei ATCC 9290; type: cell-based; conditions: ATCC9290, read-out: Minimum Inhibitory Concentration
# From the text: as §1
# Escherichia coli ATCC 26 = assay: Antibacterial activity by agar dilution method (pH 7.0), Escherichia coli ATCC 26; type: cell-based; conditions: ATCC26, read-out: Minimum Inhibitory Concentration
# From the text: as §1
structure (smiles),measurement,setting,value
CC(OC(=O)CCl)c1cccc2nc3c(C(=O)O)cccc3nc12 (centres unmarked) [DC-86-C],MIC,[1],10 µg/mL
same,"T/C (average tumor volume, treated/control)",[2]; 12.5 mg/kg i.p. once,0.98
same,"T/C (average tumor volume, treated/control)",[2]; 25 mg/kg i.p. once,0.72
same,"T/C (average tumor volume, treated/control)",[2]; 50 mg/kg i.p. once,dead
same,MIC,[3],> 100 µg/mL
same,MIC,[4],0.2 µg/mL
same,LD50,in vivo,40 mg/kg
same,MIC,[5],0.01 µg/mL
same,MIC,[6],10 µg/mL
same,MIC,Escherichia coli ATCC 26,> 100 µg/mL
CC(OC(=O)CO)c1cccc2nc3c(C(=O)O)cccc3nc12 (centres unmarked) [DC-86-M],MIC,[1],10 µg/mL
same,"T/C (average tumor volume, treated/control)",[2]; 5 mg/kg i.p. once,0.97
same,"T/C (average tumor volume, treated/control)",[2]; 10 mg/kg i.p. once,0.82
same,"T/C (average tumor volume, treated/control)",[2]; 20 mg/kg i.p. once,0.36
same,MIC,[3],100 µg/mL
same,MIC,[4],0.3 µg/mL
same,LD50,in vivo,20 mg/kg
same,MIC,[5],0.1 µg/mL
same,MIC,[6],10 µg/mL
same,MIC,Escherichia coli ATCC 26,100 µg/mL
CC(OC(=O)COC(C)(C)C)c1cccc2nc3c(C(=O)O)cccc3nc12 (centres unmarked) [DC-86-R],MIC,[1],> 100 µg/mL
same,"T/C (average tumor volume, treated/control)",[2]; 50 mg/kg i.p. once,1.06
same,"T/C (average tumor volume, treated/control)",[2]; 100 mg/kg i.p. once,0.87
same,"T/C (average tumor volume, treated/control)",[2]; 200 mg/kg i.p. once,0.86
same,MIC,[3],> 100 µg/mL
same,MIC,[4],3 µg/mL
same,LD50,in vivo,250 mg/kg
same,MIC,[5],0.7 µg/mL
same,MIC,[6],> 100 µg/mL
same,MIC,Escherichia coli ATCC 26,> 100 µg/mL
"CC(O)c1cccc2nc3c(C(=O)O)cccc3nc12 (centres unmarked) [DC-86-Y, metal not drawn]",MIC,[1],> 100 µg/mL
same,MIC,[3],> 100 µg/mL
same,MIC,[4],> 100 µg/mL
same,LD50,in vivo,300 mg/kg
same,MIC,[5],> 100 µg/mL
same,MIC,[6],> 100 µg/mL
same,MIC,Escherichia coli ATCC 26,> 100 µg/mL
"CO[C@@]12[C@H](COC(N)=O)C3=C(C(=O)C(C)=C(N)C3=O)N1C[C@@H]1N[C@@H]12 [Mitomycin C, mitomycin C, reference compound]","T/C (average tumor volume, treated/control)",[2]; 6 mg/kg i.p.,0.28
